We go through three compounds from patent publication US8530477B2, “Tropane urea derivatives, preparation thereof and therapeutic application thereof as modulators of the activity of 11betaHSD1” (Sanofi, priority 2008, dated 2013).

One experiment addresses T1, 11beta-HSD1 enzyme (Homo sapiens, UniProt P28845).
T1 construct: made in house; host or cells: Saccharomyces cerevisiae
The experiment can be described thus: SPA (Scintillation Proximity Assay) of in vitro inhibitory activity on 11beta-HSD1, 384-well format. Type of experiment: biochemical. As to conditions: recombinant 11beta-HSD1 produced in yeast S. cerevisiae; 3H-cortisone, NADPH; cortisol formed; read-out: concentration which inhibits 50% of the activity of 11beta-HSD1 (IC50). Here is the method: The compounds according to the invention were the subject of pharmacological assays for determining their inhibitory effect on the 11beta-HSD1 enzyme which is an enzyme involved in lipid metabolism or glucose metabolism.
These assays consisted in measuring the in vitro inhibitory activity of the compounds of the invention by means of an SPA (Scintillation Proximity Assay) in 384-well format. Recombinant 11beta-HSD1 protein was produced in the yeast S. cerevisiae. The reaction was carried out by incubating the enzyme in the presence of ^3H-cortisone and of NADPH, in the absence or presence of an increasing concentration of inhibitor. SPA beads coupled to an anti-mouse antibody, pre-incubated with an anti-cortisol antibody, made it possible to measure the amount of cortisol formed during the course of the reaction.
The inhibitory activity with respect to the 11beta-HSD1 enzyme is given by the concentration which inhibits 50% of the activity of 11beta-HSD1 (IC50).
For orientation: In a scintillation proximity assay essentially only radioactivity close to the scintillant gives light.

The target of experiment [1] is T2, 11βHSD1 (Homo sapiens, UniProt P28845). As to conditions: slim volunteer patients and type 2 diabetics; cited from earlier work.
Another experiment deals with T3, 11βHSD1 in the eyes (Homo sapiens, UniProt P28845).
T3 construct: host or cells: healthy volunteers (in vivo, eye)
As to conditions: healthy volunteers; after seven days of treatment; cited from earlier work.

For experiment [2], the target named is T2, 11βHSD1. More on the design: host or cells: elderly human individuals (in vivo). As to conditions: elderly individuals; cited from earlier work.
Experiment [3] deals with T2, 11βHSD1. Set-up: host or cells: healthy volunteers (in vivo, bone). As to conditions: healthy volunteers; cited from earlier work.

T2 sequence (P28845 whole entry): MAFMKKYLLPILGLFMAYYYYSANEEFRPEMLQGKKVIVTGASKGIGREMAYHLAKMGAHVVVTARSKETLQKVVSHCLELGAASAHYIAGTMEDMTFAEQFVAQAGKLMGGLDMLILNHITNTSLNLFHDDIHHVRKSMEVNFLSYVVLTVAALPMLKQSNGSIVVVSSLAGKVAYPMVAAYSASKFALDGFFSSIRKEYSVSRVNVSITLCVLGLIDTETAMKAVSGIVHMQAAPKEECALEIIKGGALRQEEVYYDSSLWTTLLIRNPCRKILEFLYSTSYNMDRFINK
T1 sequence (P28845 whole entry, species assumed): as the sequence (P28845 whole entry) above
T3 sequence (P28845 whole entry): as above

Regarding `CS(=O)(=O)N1CCN(c2ccc(OCC3CC4CCC(C3)N4C(=O)NC3C4CC5CC3CC(O)(C5)C4)cc2)CC1` (stereo not drawn) [Compound No. 17, endo-3-[4-(4-Methanesulfonylpiperazin-1-yl)phenoxymethyl]-8-azabicyclo-[3.2.1]octane-8-carboxylic acid (trans-5-hydroxyadamantan-2-yl)amide], on 11beta-HSD1 enzyme, the IC50 stood at 4 nM.
For `CC1(C)[C@@H](OC(=O)CCC(=O)O)CC[C@]2(C)[C@H]3C(=O)C=C4[C@@H]5C[C@@](C)(C(=O)O)CC[C@]5(C)CC[C@@]4(C)[C@]3(C)CC[C@@H]12` [carbenoxolone], the insulin sensitivity entry at 11βHSD1 [1] is on record as “improves insulin sensitivity”. Further, the “IOP (intraocular pressure) reduced by” value at 11βHSD1 in the eyes is listed as 18%. The “verbal fluidity and verbal memory” value at 11βHSD1 [2] is “improves verbal fluidity and verbal memory”. In addition, on 11βHSD1 [3], the bone formation markers entry is reported as “without any change” and the bone resorption markers result is “decrease”.
`CS(=O)(=O)N1CCN(c2ccc(OC3CC4CCC(C3)N4C(=O)NC3C4CC5CC3CC(O)(C5)C4)cc2)CC1` (stereo not drawn) [compound 5, exo-3-[4-(4-Methanesulfonylpiperazin-1-yl)phenoxy]-8-azabicyclo-[3.2.1]octane-8-carboxylic acid (trans-5-hydroxyadamantan-2-yl)amide]: the IC50 at 11beta-HSD1 enzyme came out at 10 nM.
